How the values were obtained:
HuO-3N1 (Osteosarcoma) = assay: Bliss excess, mean over the matrix (fraction); higher = more synergy
In short: (§1)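 Bliss excess equals the observed combination effect minus the expected value EA + EB − EA·EB, where EA and EB are the effects of each agent alone. Combination Emax is the second-highest inhibition within the matrix. Inhibition was scaled from CellTiter-Glo 2.0 luminescence, with 0 set by vehicle wells and 1 by blank wells, after 72 hours of two-drug dosing of cells plated in 1536-well plates.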

[1] = test system: NKM-1 (Acute Myeloid Leukemia); assay: as above
In short: as §1

786-0 (Kidney Carcinoma) = assay: combination Emax (second highest fraction inhibited in the dose matrix, 72 h); higher = more inhibition; extreme values may be limits of the assay
In short: as §1

[2] = test system: BALL-1 (B-Lymphoblastic Leukemia); assay: as above
In short: as §1

CHL-1 (Melanoma) = assay: as above
In short: as §1

[3] = test system: COLO-684 (Endometrial Carcinoma); assay: as above
In short: as §1

[4] = test system: EB-3 (Burkitt's Lymphoma); assay: as above
In short: as §1

[5] = test system: FLO-1 (Esophageal Adenocarcinoma); assay: as above
In short: as §1

[6] = test system: HTC-C3 (Thyroid Gland Carcinoma); assay: as above
In short: as §1

[7] = test system: LOUCY (T-Lymphoblastic Leukemia); assay: as above
In short: as §1

[8] = test system: NCI-H1563 (Lung Adenocarcinoma); assay: as above
In short: as §1

[9] = test system: NCI-H1623 (Lung Adenocarcinoma); assay: as above
In short: as §1

[10] = test system: NCI-H1755 (Lung Adenocarcinoma); assay: as above
In short: as §1

[11] = test system: NKM-1 (Acute Myeloid Leukemia); assay: as above
In short: as §1

[12] = test system: OCI-AML5 (Acute Myeloid Leukemia); assay: as above
In short: as §1

[13] = test system: OVTOKO (Ovarian Carcinoma); assay: as above
In short: as §1

[14] = test system: RL95-2 (Endometrial Carcinoma); assay: as above
In short: as §1

[15] = test system: RPMI-8866 (Chronic Myelogenous Leukemia); assay: as above
In short: as §1

[16] = test system: SNU-175 (Colorectal Carcinoma); assay: as above
In short: as §1

NC1(C(=O)N[C@@H](CCO)c2ccc(Cl)cc2)CCN(c2ncnc3[nH]ccc23)CC1 [Capivasertib] + CCN(CCO)CCCOc1ccc2c(Nc3cc(CC(=O)Nc4cccc(F)c4)[nH]n3)ncnc2c1 [AZD2811] (first compound max 10 µM, 7x7, partner max 1 µM) was tested, and the Bliss excess (HuO-3N1 (Osteosarcoma)) was -0.0379, the Bliss excess [1] was -0.0299 and the “combination Emax” value (786-0 (Kidney Carcinoma)) was 0.553. For the same compound, the “combination Emax” value [2] was 0.74, the “combination Emax” value (CHL-1 (Melanoma)) was 0.567 and the “combination Emax” value [3] was 0.659. The “combination Emax” value [4] was 0.458, the “combination Emax” value [5] was 0.415 and the “combination Emax” value [6] was 0.405. For the same compound, the “combination Emax” value [7] was 0.918, the “combination Emax” value [8] was 0.441 and the “combination Emax” value [9] was 0.555. For the same compound, the “combination Emax” value [10] was 0.648, the “combination Emax” value [11] was 0.779 and the “combination Emax” value [12] was 0.974. The “combination Emax” value [13] was 0.568, the “combination Emax” value [14] was 1 and the “combination Emax” value [15] was 0.562. For the same compound, the “combination Emax” value [16] was 0.846.

NC1(C(=O)N[C@@H](CCO)c2ccc(Cl)cc2)CCN(c2ncnc3[nH]ccc23)CC1 [Capivasertib] + COc1nnc2ccc(N3CCC(c4ccc(OCCN5CCN(C)C(=O)[C@H]5C)cc4)CC3)nn12 [AZD5153] (first compound max 10 µM, 7x7, partner max 1 µM) was tested, and the Bliss excess (HuO-3N1 (Osteosarcoma)) was 0.0531, the Bliss excess [1] was -0.0157 and the “combination Emax” value (786-0 (Kidney Carcinoma)) was 0.733. The “combination Emax” value [2] was 0.973, the “combination Emax” value (CHL-1 (Melanoma)) was 0.708 and the “combination Emax” value [3] was 0.782. The “combination Emax” value [4] was 0.752, the “combination Emax” value [5] was 0.612 and the “combination Emax” value [6] was 0.791. For the same compound, the “combination Emax” value [7] was 0.998, the “combination Emax” value [8] was 0.76 and the “combination Emax” value [9] was 0.52. For the same compound, the “combination Emax” value [10] was 0.717, the “combination Emax” value [11] was 1 and the “combination Emax” value [12] was 0.769. The “combination Emax” value [13] was 0.604, the “combination Emax” value [14] was 0.9 and the “combination Emax” value [15] was 0.839. The “combination Emax” value [16] was 0.649.

For NC1(C(=O)N[C@@H](CCO)c2ccc(Cl)cc2)CCN(c2ncnc3[nH]ccc23)CC1 [Capivasertib] + C[C@@H]1COCCN1C2=NC(=NC(=C2)C3(CC3)[S@](=N)(=O)C)C4=C5C=CNC5=NC=C4 [AZD6738] (first compound max 10 µM, 7x7, partner max 10 µM), the Bliss excess (HuO-3N1 (Osteosarcoma)) was -0.11, the Bliss excess [1] was -0.0479 and the “combination Emax” value (786-0 (Kidney Carcinoma)) was 0.809. For the same compound, the “combination Emax” value [2] was 1, the “combination Emax” value (CHL-1 (Melanoma)) was 0.732 and the “combination Emax” value [3] was 0.798. The “combination Emax” value [4] was 0.651, the “combination Emax” value [5] was 0.652 and the “combination Emax” value [6] was 0.823. The “combination Emax” value [7] was 0.979, the “combination Emax” value [8] was 0.501 and the “combination Emax” value [9] was 0.82. For the same compound, the “combination Emax” value [10] was 0.83, the “combination Emax” value [11] was 0.933 and the “combination Emax” value [12] was 0.917. The “combination Emax” value [13] was 0.628, the “combination Emax” value [14] was 0.886 and the “combination Emax” value [15] was 0.911. For the same compound, the “combination Emax” value [16] was 0.709.

NC1(C(=O)N[C@@H](CCO)c2ccc(Cl)cc2)CCN(c2ncnc3[nH]ccc23)CC1 [Capivasertib] + Cn1cnc2c(F)c(Nc3ccc(Br)cc3Cl)c(C(=O)NOCCO)cc21 [Selumetinib] (first compound max 10 µM, 7x7, partner max 10 µM) was tested, and the Bliss excess (HuO-3N1 (Osteosarcoma)) was -0.0321, the Bliss excess [1] was 0.142 and the “combination Emax” value (786-0 (Kidney Carcinoma)) was 0.696. For the same compound, the “combination Emax” value [2] was 0.478, the “combination Emax” value (CHL-1 (Melanoma)) was 0.367 and the “combination Emax” value [3] was 0.63. For the same compound, the “combination Emax” value [4] was 0.325, the “combination Emax” value [5] was 0.559 and the “combination Emax” value [6] was 0.772. The “combination Emax” value [7] was 0.66, the “combination Emax” value [8] was 0.4 and the “combination Emax” value [9] was 0.813. The “combination Emax” value [10] was 0.644, the “combination Emax” value [11] was 0.965 and the “combination Emax” value [12] was 0.951. For the same compound, the “combination Emax” value [13] was 0.565, the “combination Emax” value [14] was 1 and the “combination Emax” value [15] was 0.432. For the same compound, the “combination Emax” value [16] was 0.534.

Cc1nc(Nc2ncc(C(=O)Nc3c(C)cccc3Cl)s2)cc(N2CCN(CCO)CC2)n1 [Dasatinib] + CC(=O)Nc1cccc(-n2c(=O)n(C3CC3)c(=O)c3c(Nc4ccc(I)cc4F)n(C)c(=O)c(C)c32)c1 [Trametinib] (first compound max 2 µM, 7x7, partner max 1 µM) was tested, and the Bliss excess (HuO-3N1 (Osteosarcoma)) was -0.159, the Bliss excess [1] was -0.0196 and the “combination Emax” value (786-0 (Kidney Carcinoma)) was 0.642. The “combination Emax” value [2] was 0.257, the “combination Emax” value (CHL-1 (Melanoma)) was 0.409 and the “combination Emax” value [3] was 0.0848. For the same compound, the “combination Emax” value [4] was 0.362, the “combination Emax” value [5] was 0.966 and the “combination Emax” value [6] was 0.906. The “combination Emax” value [7] was 0.344, the “combination Emax” value [8] was 0.447 and the “combination Emax” value [9] was 0.576. For the same compound, the “combination Emax” value [10] was 0.961, the “combination Emax” value [11] was 0.899 and the “combination Emax” value [12] was 0.81. For the same compound, the “combination Emax” value [13] was 0.748, the “combination Emax” value [14] was 0.405 and the “combination Emax” value [15] was 0.556. The “combination Emax” value [16] was 0.425.

With COc1cc2ncnc(Nc3ccc(F)c(Cl)c3)c2cc1OCCCN1CCOCC1 [Gefitinib] + CC(C)n1c(=O)n(C)c2cnc3cc(F)c(-c4ccc(OCCCN5CCCCC5)nc4)cc3c21 [AZD1390] (first compound max 10 µM, 7x7, partner max 0.3 µM) the Bliss excess (HuO-3N1 (Osteosarcoma)) was -0.0756, the Bliss excess [1] was -0.0581 and the “combination Emax” value (786-0 (Kidney Carcinoma)) was 0.247. For the same compound, the “combination Emax” value [2] was 0.279, the “combination Emax” value (CHL-1 (Melanoma)) was 0.409 and the “combination Emax” value [3] was 0.0995. For the same compound, the “combination Emax” value [4] was 0.456, the “combination Emax” value [5] was 0.357 and the “combination Emax” value [6] was 0.0317. The “combination Emax” value [7] was 0.296, the “combination Emax” value [8] was 0.228 and the “combination Emax” value [9] was 0.904. For the same compound, the “combination Emax” value [10] was 0.264, the “combination Emax” value [11] was 0.167 and the “combination Emax” value [12] was 0.145. The “combination Emax” value [13] was 0.428, the “combination Emax” value [14] was 0.0606 and the “combination Emax” value [15] was 0.119. For the same compound, the “combination Emax” value [16] was 0.456.

Source: the supplement of paper PMC11061612
